# Laboratory results published in patent US8859578B2, “Natural product derivatives with antiprotozoal activity” (Radix Pharmaceuticals, Inc., priority 2012, dated 2014).
# Several values for one entry are separate records, joined by “and”; a condition that tells them apart may be missing. Equal entries are not always repeated. Where two headings read alike, the source gives them in different places.
# How the values were obtained:
# P. falciparum K1 = assay: In vitro blood stage antimalarial activity, [3H]hypoxanthine uptake; format: cell-based; conditions: Plasmodium falciparum
# Description: (§1) In Vitro Blood Stage Antimalarial Efficacy Evaluation. New compounds were tested against a panel of strains of P. falciparum.
# (§2) Test compounds were initially dissolved in DMSO and diluted 400 fold in RPMI 1640 culture medium supplemented with 25 mM Hepes, 32 mM NaHCO3 and 10% Albumax I (Gibco, NY). These solutions were subsequently serially diluted two-fold with a Beckman Biomek® 1000 Robot (Fullerton, Calif.) over 11 different concentrations. The parasites were exposed to serial dilutions of each compound for 48 hrs and incubated at 37° C. with 5% O2, 5% CO2 and 90% N2 prior to the addition of [^3H]hypoxanthine. After a further incubation of 18 hrs, parasite DNA was harvested from each microtiter well using Packard Filtermate™ 196 Harvester (Meriden, Conn.) onto glass filters. Uptake of [^3H]hypoxanthine was measured with a Packard TopCount Liquid Scintillation Counter (Packard Instrument Co.).
# rodent P. berghei = assay: Antimalarial potency (MCD, MCureD) and therapeutic indices, rodent P. berghei; format: in vivo
# Description: Antimalarial potency was measured by determination of the MCD (minimum clearance dose), a commonly used efficacy measurement. The primary therapeutic indices, which were obtained by using the MCDs as the effective parameters, were calculated. A secondary therapeutic indices measure of antimalarial potency was determined by use of the dose for the MCureD (minimum curative dose).
# P. falciparum PH3 = assay: In vitro blood stage antimalarial activity, [3H]hypoxanthine uptake; format: cell-based; conditions: Plasmodium falciparum
# Description: as §1, §2
# P. falciparum DD2 = assay: as above; format: cell-based; conditions: Plasmodium falciparum
# Description: as §1, §2
# P. falciparum TM6 = assay: as above; format: cell-based; conditions: Plasmodium falciparum
# Description: as §1, §2
# P. falciparum TM4 = assay: as above; format: cell-based; conditions: Plasmodium falciparum
# Description: as §1, §2
# P. falciparum 3D7 = assay: as above; format: cell-based; conditions: Plasmodium falciparum
# Description: as §1, §2
# P. falciparum V1S = assay: microbe, parasite or virus in culture; format: cell-based; conditions: Plasmodium falciparum
# Description: as §1, §2
# Plasmodium cynomolgi = assay: Radical curative activity in relapsed Rhesus monkeys; format: in vivo; conditions: for Monkeys cured: co-administered with chloroquine, two monkeys; for Days post-treatment (to relapse): with CQ 10 mg/kg/day for 7 days, one value per monkey
# Description: Compounds with antihypnozoite activity will delay the relapse or radically cure the infection. […] Relapse was expected in the control group. Relapse in the treated group indicates failure of the test compounds. […] Relapse in experimental animals and the second relapse of the control monkeys were treated with the standard 7 day oral CQ and primaquine (1.78 mg base/kg).
# Plasmodium berghei = assay: Oral prophylactic test in mice; format: in vivo
# [1] = test system: Liver Stage of P. yoelii yoelii; assay: In vitro liver-stage antimalarial efficacy; format: cell-based; conditions: Plasmodium yoelii
# Description: In Vitro Liver-Stage Antimalarial Efficacy Evaluation. Any new desirable antimalarial drug should be broad spectrum: it should be active against both the blood stage and the liver stage of the parasite. New compounds were assessed on the Plasmodium yoelii liver stage in vitro. The liver stage of P. yoelii is a parasite of rodent extensively used as an experimental model for studying the initial phase of the malaria infection.
# [2] = test system: chloroquine-resistant FVO strain of P. falciparum; assay: Efficacy against blood stages of P. falciparum in Aotus monkeys; format: in vivo; conditions: oral for 3 days
# Source text: In Vivo Efficacy Studies in Aotus Monkey Model. The monkeys selected for the study had active infections of the chloroquine-resistant FVO strain of P. falciparum.
# Malaria-naive Panamanian owl monkeys (Aotus lemurinus lemurinus) were used as hosts for chioroquine-resistant P. falciparum. The chloroquine-resistant Vietnam Smith strain was used in the initial experiments. In subsequent studies, a recrudescent isolate from a Vietnam Smith strain infected Aotus monkey treated with chloroquine was used.
# The inoculum size produced a parasitemia of at least 5×10^3/mm^3 by the fifth day postinoculation, at which time treatment was begun. Stock solutions of water-soluble drug were prepared at appropriate concentrations and maintained at 4° C. during the course of treatment. A suspension of water-insoluble drugs was prepared in 0.3% methylcellulose just prior to use. All drugs were administered by gastric intubation in a volume of 7.0 ml, followed by a 7.0-mi rinse with either water or 0.3% methylcellulose. Test drug was given orally for either three or seven consecutive days. […]
# Giemsa-stained blood smears were prepared from all animals and examined daily beginning the day after inoculation until parasitemia was cleared and for at least seven days thereafter. […] Ten or less parasites on a thick blood film were recorded as <10. Parasitemia was enumerated and expressed as number of parasites/mm^3. […]
# [3] = test system: Plasmodium cynomolgi sporozoite; assay: Causal prophylactic activity in P. cynomolgi sporozoite-challenged Rhesus monkeys; format: in vivo; conditions: PO 15 mg/kg, 1 daily for 3 days
# Source text: Two monkeys were used in each test group. The control animals developed parasitemia in about 10 days after inoculation of about 1×10^6 P. cynomolgi sporozoites harvested from Anopheles dirus. All the monkeys received three treatments, once a day for three consecutive days beginning a day before (−1, 0, +1) the sporozoites challenge. The control monkeys (group 1) received HECT and the experimental animals received testing compound by using 8 Fr., 15-in. long nasogastric tubes.
# in vivo = conditions: Sprague-Dawley, rat, po
structure (smiles),measurement,setting,value
CCN(CC)Cc1cc(Nc2ccnc3cc(Cl)ccc23)ccc1O [Amodiaquine],IC50,P. falciparum K1; read-out: IC50,21.2 ± 2.1 nM
C[C@H]1[C@H](OC(=O)CCC(=O)O)O[C@@H]2O[C@@]3(C)CC[C@H]4[C@H](C)CC[C@@H]1[C@@]24OO3 [Artesunate],MCureD (minimum curative dose),rodent P. berghei; route of administration iv,25.4 mg/kg
"CCN(CC)CCCC(C)Nc1ccnc2cc(Cl)ccc12 (stereo not drawn) [Chloroquine, reference compound]",MCureD (minimum curative dose),rodent P. berghei; administered orally,None
same,IC50,P. falciparum PH3,33.4 ± 9.1 nM
same,IC50,P. falciparum DD2,45.8 ± 10.2 nM
same,IC50,P. falciparum TM6,96.4 ± 6.9 nM
same,IC50,P. falciparum TM4,115 ± 12.7 nM
same,IC50,P. falciparum K1,166 ± 19.3 nM
same,IC50,P. falciparum 3D7,9.7 ± 3.4 nM
same,IC50,P. falciparum V1S,152 ± 14.1 nM
same,Results (radical curative test),"Plasmodium cynomolgi; Rhesus monkeys, chloroquine alone, 10 mg/kg/day for 7 days",relapse
COc1cc2c(c3cc4c(nc13)C=C[C@@]1([C@H]3CC([C@H](O)[C@@H](N)C(C)C)OCO3)C=CCOC41)[C@@H]1OCOC[C@]1(C)N2 (stereo partly drawn) [Formula A],Mice infected and treated/Mice surviving day 60,"Plasmodium berghei; day of treatment 1, dose 0.5 mg/kg oral",5/5
same,Mice infected and treated/Mice surviving day 60,"Plasmodium berghei; day of treatment 1, dose 2 mg/kg oral",5/5
same,Mice infected and treated/Mice surviving day 60,"Plasmodium berghei; day of treatment 1, dose 8 mg/kg oral",5/5
same,Mice infected and treated/Mice surviving day 60,"Plasmodium berghei; day of treatment 1, dose 32 mg/kg oral",5/5
same,Mice infected and treated/Mice surviving day 60,"Plasmodium berghei; day of treatment 2, dose 0.5 mg/kg oral",5/5
same,Mice infected and treated/Mice surviving day 60,"Plasmodium berghei; day of treatment 2, dose 2 mg/kg oral",5/5
same,Mice infected and treated/Mice surviving day 60,"Plasmodium berghei; day of treatment 2, dose 8 mg/kg oral",5/5
same,Mice infected and treated/Mice surviving day 60,"Plasmodium berghei; day of treatment 2, dose 32 mg/kg oral",5/5
same,Mice infected and treated/Mice surviving day 60,"Plasmodium berghei; day of treatment −1, dose 0.5 mg/kg oral",5/5
same,Mice infected and treated/Mice surviving day 60,"Plasmodium berghei; day of treatment −1, dose 2 mg/kg oral",5/5
same,Mice infected and treated/Mice surviving day 60,"Plasmodium berghei; day of treatment −1, dose 8 mg/kg oral",5/5
same,Mice infected and treated/Mice surviving day 60,"Plasmodium berghei; day of treatment −1, dose 32 mg/kg oral",5/5
same,Mice infected and treated/Mice surviving day 60,"Plasmodium berghei; day of treatment −2, dose 0.5 mg/kg oral",5/5
same,Mice infected and treated/Mice surviving day 60,"Plasmodium berghei; day of treatment −2, dose 2 mg/kg oral",5/5
same,Mice infected and treated/Mice surviving day 60,"Plasmodium berghei; day of treatment −2, dose 8 mg/kg oral",5/5
same,Mice infected and treated/Mice surviving day 60,"Plasmodium berghei; day of treatment −2, dose 32 mg/kg oral",5/5
same,Protection from malaria (oral prophylactic activity),"Plasmodium berghei; mice, single dose of 0.5 mg/kg within 2 days pre-infection through 2 days post-infection",completely protected from malaria
same,MCureD (minimum curative dose),rodent P. berghei; administered orally,12.6 mg/kg
same,IC50,P. falciparum PH3; read-out: IC50,0.27 ± 0.05 nM
same,IC50,P. falciparum DD2; read-out: IC50,0.17 ± 0.04 nM
same,IC50,P. falciparum TM6; read-out: IC50,0.27 ± 0.05 nM
same,IC50,P. falciparum TM4; read-out: IC50,0.41 ± 0.09 nM
same,IC50,P. falciparum K1; read-out: IC50,0.35 ± 0.06 nM
same,IC50,P. falciparum 3D7; read-out: IC50,0.12 ± 0.03 nM
same,IC50,[1],6.2 nM
same,dosage needed to cure 50% of animals,[2],2 mg/kg/day
same,dosage needed to cure 100% of animals,[2],8 mg/kg/day
same,IC50,P. falciparum V1S,0.21 ± 0.03 nM
same,Monkeys cured,Plasmodium cynomolgi; 15 mg/kg/day level,one out of two monkeys
same,Monkeys cured,Plasmodium cynomolgi; 30 mg/kg/day level,both monkeys
same,Days post-treatment (to relapse),"Plasmodium cynomolgi; Rhesus monkeys, PO 15 mg/kg 1 daily for 3 days",44 days and no relapse
same,Days post-treatment (to relapse),"Plasmodium cynomolgi; Rhesus monkeys, PO 30 mg/kg 1 daily for 3 days",no relapse
same,Delay of patency compared with untreated control monkeys,[3],delayed patency of treated monkeys more than a month
same,Parasite patency (days postinoculation),"[3]; one value per monkey, control 8 days, 15 mg/kg",42 days and 60 days
same,NOAEL at 2 weeks,in vivo,> 100 mg/kg/day
same,MTD at 2 weeks,in vivo; MTD (maximum tolerated dose),> 500 mg/kg
"COc1cc(NC(C)CCCN)c2ncccc2c1 (stereo not drawn) [Primaquine, reference compound]",IC50,[1],76 nM
